IC50 data for 25 compounds are collected here from US20250025443A1, “COMPOUNDS AND METHODS FOR TREATING CORONA VIRUSES” (CLEAR CREEK BIO, INC., priority 2021, published 2025).

Bounds are passed on as bounds.

In one test the target is SARS-CoV-2 Papain-Like Protease (PLpro) (Severe acute respiratory syndrome coronavirus 2 (2019-nCoV) (SARS-CoV-2), UniProt P0DTD1). Briefly: biochemical. The conditions noted are these: PLpro enzymatic fluorescence assay; class symbols; read-out: PLpro IC50.
A word on the IC50: it is the point on the concentration scale where inhibition reaches its midpoint. `Cc1ccc(OCC2CCN2C)cc1C(=O)NC1(c2ccnc3ccccc23)CC1` (stereo not shown) [Compound 473, 2-Methyl-5-((1-methylazetidin-2-yl)methoxy)-N-(1-(quinolin-4-yl)cyclopropyl)benzamide]: the IC50 is less than 100 nM.
Still for that read-out and setting: under `Cc1ccc(OCC2CCN2C)cc1C(=O)NC1(c2cc(OC(C)C)cc3ccccc23)CC1` (stereo not shown) [Compound 476, N-(1-(3-Isopropoxynaphthalen-1-yl)cyclopropyl)-2-methyl-5-((1-methylazetidin-2-yl)methoxy)benzamide] stands less than 100 nM; under `CCOc1cc(C2(NC(=O)c3cc(OCC4CCN4C)ccc3C)CC2)c2ccccc2c1` (stereo not shown) [Compound 478, N-(1-(3-Ethoxynaphthalen-1-yl)cyclopropyl)-2-methyl-5-((1-methylazetidin-2-yl)methoxy)benzamide], less than 100 nM.
Take `Cc1ccc(-c2cc(C3(NC(=O)c4cc(OCC(C)N)ccc4C)CC3)c3ccccc3c2)s1` (stereo not shown) [Compound 479, 5-(2-Aminopropoxy)-2-methyl-N-(1-(3-(5-methylthiophen-2-yl)naphthalen-1-yl)cyclopropyl)benzamide]: the half-inhibitory concentration (IC50) is less than 100 nM.
As for `Cc1ccc(OCC(C)N)cc1C(=O)NC1(c2cc(-c3ccc(F)cc3)cc3ccccc23)CC1` (stereo not shown) [Compound 480, 5-(2-Aminopropoxy)-N-(1-(3-(4-fluorophenyl)naphthalen-1-yl)cyclopropyl)-2-methylbenzamide], the 50% inhibitory concentration (IC50) is less than 100 nM.
On the same count and under the same terms, under `Cc1ccc(N2CCC(N)C2)cc1C(=O)NC1(c2cccc3ccccc23)CC1` (stereo not shown) [Compound 485, 5-(3-Aminopyrrolidin-1-yl)-2-methyl-N-(1-(naphthalen-1-yl)cyclopropyl)benzamide] stands less than 100 nM; under `Cc1ccc(OCC2CCN2C)cc1C(=O)NC1(c2cc(O)cc3ncccc23)CC1` (stereo not shown) [Compound 488, N-(1-(7-Hydroxyquinolin-5-yl)cyclopropyl)-2-methyl-5-((1-methylazetidin-2-yl)methoxy)benzamide], less than 100 nM; under `Cc1ccc(-c2cc(C3(NC(=O)c4cc(OCC5CCN5C)ccc4C)CC3)c3ccccc3c2)s1` (stereo not shown) [Compound 493, 2-Methyl-5-((1-methylazetidin-2-yl)methoxy)-N-(1-(3-(5-methylthiophen-2-yl)naphthalen-1-yl)cyclopropyl)benzamide], less than 100 nM.

Still in this test, the particulars now being: SARS-CoV-2 PLpro enzymatic fluorescence assay; read-out: PLpro IC50.
Regarding `CCS(=O)(=O)c1cc(C2(NC(=O)c3cc(OCCN(C)C)ccc3C)CC2)c2ccccc2c1` [Compound 471, 5-(2-(Dimethylamino)ethoxy)-N-(1-(3-(ethylsulfonyl)naphthalen-1-yl)cyclopropyl)-2-methylbenzamide], the IC50 lay within 100 to 1000 nM.
Still for that read-out and setting: under `Cc1ccc(CCCN)cc1C(=O)NC1(c2cccc3ccccc23)CC1` [Compound 472, 5-(3-Aminopropyl)-2-methyl-N-(1-(naphthalen-1-yl)cyclopropyl)benzamide] stands less than 100 nM; under `CCCOc1cc(C2(NC(=O)c3cc(OCC4CCN4C)ccc3C)CC2)c2ccccc2c1` (stereo not shown) [Compound 474, 2-Methyl-5-((1-methylazetidin-2-yl)methoxy)-N-(1-(3-propoxynaphthalen-1-yl)cyclopropyl)benzamide], less than 100 nM.
On the same count and under the same terms, under `Cc1ccc(OCC2CCN2C)cc1C(=O)NC1(c2cc(-c3ccccc3)cc3ccccc23)CC1` (stereo not shown) [Compound 475, 2-Methyl-5-((1-methylazetidin-2-yl)methoxy)-N-(1-(3-phenylnaphthalen-1-yl)cyclopropyl)benzamide] stands less than 100 nM; under `Cc1ccc(OCC2CCN2C)cc1C(=O)NC1(c2cccc3ccc(O)cc23)CC1` (stereo not shown) [Compound 477, N-(1-(7-Hydroxynaphthalen-1-yl)cyclopropyl)-2-methyl-5-((1-methylazetidin-2-yl)methoxy)benzamide], less than 100 nM; under `Cc1cc(C2(NC(=O)c3cc(OCC(C)N)ccc3C)CC2)c2ccccc2c1` (stereo not shown) [Compound 481, 5-(2-Aminopropoxy)-2-methyl-N-(1-(3-methylnaphthalen-1-yl)cyclopropyl)benzamide], less than 100 nM.
On the same count and under the same terms, under `Cc1ccc(OCC2CCN2C)cc1C(=O)NC1(c2cc(NC(=O)OC(C)(C)C)cc3ccccc23)CC1` (stereo not shown) [Compound 482, tert-Butyl(4-(1-(2-methyl-5-((1-methylazetidin-2-yl)methoxy)benzamido)cyclopropyl)naphthalen-2-yl)carbamate] stands less than 100 nM; under `Cc1ccc(OCC2CCN2C)cc1C(=O)NC1(c2cccc3ccc(N)cc23)CC1` (stereo not shown) [Compound 483, N-(1-(7-Aminonaphthalen-1-yl)cyclopropyl)-2-methyl-5-((1-methylazetidin-2-yl)methoxy)benzamide], less than 100 nM.
On to `Cc1ccc(OCC2CCN2C)cc1C(=O)NC1(c2cc(C#N)cc3ccccc23)CC1` (stereo not shown) [Compound 484, N-(1-(3-Cyanonaphthalen-1-yl)cyclopropyl)-2-methyl-5-((1-methylazetidin-2-yl)methoxy)benzamide], for which the IC50 was less than 100 nM.
For `CNCCOc1ccc(C)c(C(=O)NC2(c3cc(-c4cccs4)cc4ccccc34)CC2)c1` [Compound 486, 2-Methyl-5-(2-(methylamino)ethoxy)-N-(1-(3-(thiophen-2-yl)naphthalen-1-yl)cyclopropyl)benzamide], the concentration for half-maximal inhibition (IC50) was less than 100 nM.
On the same count and under the same terms, under `Cc1cc(N)c(OCC2CCN2C)cc1C(=O)NC1(c2cccc3ccccc23)CC1` (stereo not shown) [Compound 487, 4-Amino-2-methyl-5-((1-methylazetidin-2-yl)methoxy)-N-(1-(naphthalen-1-yl)cyclopropyl)benzamide] stands less than 100 nM.
With `COc1cc(C2(NC(=O)c3cc(OC[C@@H]4C[C@@H](F)CN4C)ccc3C)CC2)c2ccccc2c1` [Compound 489, 5-(((2S,4R)-4-Fluoro-1-methylpyrrolidin-2-yl)methoxy)-N-(1-(3-methoxynaphthalen-1-yl)cyclopropyl)-2-methylbenzamide], the half-maximal inhibitory concentration (IC50) is less than 100 nM.
Turning to `COc1cc(C2(NC(=O)c3cc(OC[C@@H]4C[C@@H](F)CN4)ccc3C)CC2)c2ccccc2c1` [Compound 490, 5-(((2S,4R)-4-Fluoropyrrolidin-2-yl)methoxy)-N-(1-(3-methoxynaphthalen-1-yl)cyclopropyl)-2-methylbenzamide], the IC50 was less than 100 nM.
`Cc1ccc(OC2CN(Cc3ccccc3)C(C)(C)C2)cc1C(=O)NC1(c2cccc3ccccc23)CC1` (stereo not shown) [Compound 491, 5-((1-benzyl-5,5-dimethylpyrrolidin-3-yl)oxy)-2-methyl-N-(1-(naphthalen-1-yl)cyclopropyl)benzamide]: the concentration for half-maximal inhibition (IC50) lay within 100 to 1000 nM.
The same measure, in the same setting: under `Cc1ccc(OCC2CC(C)(C)N2Cc2ccccc2)cc1C(=O)NC1(c2cccc3ccccc23)CC1` (stereo not shown) [Compound 492, 5-((1-Benzyl-4,4-dimethylazetidin-2-yl)methoxy)-2-methyl-N-(1-(naphthalen-1-yl)cyclopropyl)benzamide] stands 100 to 1000 nM; under `Cc1ccc(OCC2CCN2C)cc1C(=O)NC1(c2cc(N(C)C)cc3ccccc23)CC1` (stereo not shown) [Compound 495, N-(1-(3-(Dimethylamino)naphthalen-1-yl)cyclopropyl)-2-methyl-5-((1-methylazetidin-2-yl)methoxy)benzamide], less than 100 nM; under `Cc1ccc(OCC2CCN2C)cc1C(=O)NC1(c2cc(N)cc3ccccc23)CC1` (stereo not shown) [Compound 496, N-(1-(3-Aminonaphthalen-1-yl)cyclopropyl)-2-methyl-5-((1-methylazetidin-2-yl)methoxy)benzamide], less than 100 nM.
